# Earlier results, collected in patent US6420311B1, “Polyether diamine—based surfactant adjuvants and compositions thereof” (Huntsman Petrochemical Corporation, priority 1999, dated 2002).
# Conditions: free acid form
smiles,measurement,value
"O=C(O)CNCP(=O)(O)O [glyphosate, N-phosphonomethylglycine]",water solubility,low
